Reference: patent US20260092062A1, “PYRIDINE CARBOXAMIDE COMPOUNDS AND THEIR USE IN TREATING MEDICAL CONDITIONS” (Rectify Pharmaceuticals, Inc., priority 2022, published 2026)

Target: T1, E297G variant of human ABCB11 (Homo sapiens, UniProt O95342, E297G)
T1 construct: expressed in transfected cells
Assay: ABCB11 E297G expression assay (HiBit lytic luminescence) in HEK-293/E297G cells
Assay type: cell-based
Conditions: increase in expression of ABCB11 E297G, 24 hours treatment, top concentration 25 μM, class also includes Emax criterion, read-out: BSEP EC50
Description: To assess activity against ABCB11 E297G, the compounds were screened in an assay measuring protein expression, using cells transfected with cDNA encoding HiBit-tagged ABCB11 E297G.
Here we describe an assay for measuring the expression of the E297G variant of human ABCB11 (henceforth referred to as ABCB11 E297G) and the use of this assay to measure the efficacy of compounds to increase the expression of ABCB11 E297G. The assay was designed to characterize the efficacy and potency of compounds to increase the expression of ABCB11 E297G by calculating an Emax and EC50 value. HEK-293 cells stably expressing E297G (HEK-293/E297G cells) were used for this assay and were maintained at 37° C. (5% CO2, humidified) in Eagle's Minimum Essential Medium supplemented with 10% fetal bovine serum and 1% Glutamine. For the assay, the HEK-293/E297G cells were seeded in black/transparent-bottom 384-well plates at 20,000 cells/well in 22.5 μl Opti-MEM (Thermofisher, product #11058021) media supplemented with 2.7% of fetal bovine serum (Gibco, product #16000044) and allowed to settle for 4 hours at 37° C. (5% CO2, humidified). Compound serial dilutions are prepared in Opti-MEM as four times (4×) the final concentration and using a dilution factor of 2.15. After the four h incubation period, 7.5 μL of the 4× dilutions are transferred to the assay plate.
Dose response curves include eight doses with the top final concentration at 25 μM in 0.75% DMSO. Liquid handling is performed in a robotic device equipped with a 384-tip head (Analytik Jena—CyBio Vario). After addition of compound treatment, cells are incubated for 24 hours at 37° C. (5% CO2, humidified). After the 24-hour treatment, plates are allowed to equilibrate for 30 minutes at room temperature. Using the Analytik Jena—CyBio Vario instrument, the volume of each well is reduced to 15 μl and 15 μl of HiBit lytic assay reagent (Promega, product #N3040), which is prepared according to manufacturer's instructions, is added back to each well. The plates are incubated at room temperature for additional 30 minutes and luminescent signal is acquired using a Hamamatsu FDSS 7000 EX plate-reader (20 reads, exposure time 0.2 seconds, gain 200).
Results are presented below in Table 3 for ABCB11 E297G.

T1 sequence (O95342 whole entry E297G): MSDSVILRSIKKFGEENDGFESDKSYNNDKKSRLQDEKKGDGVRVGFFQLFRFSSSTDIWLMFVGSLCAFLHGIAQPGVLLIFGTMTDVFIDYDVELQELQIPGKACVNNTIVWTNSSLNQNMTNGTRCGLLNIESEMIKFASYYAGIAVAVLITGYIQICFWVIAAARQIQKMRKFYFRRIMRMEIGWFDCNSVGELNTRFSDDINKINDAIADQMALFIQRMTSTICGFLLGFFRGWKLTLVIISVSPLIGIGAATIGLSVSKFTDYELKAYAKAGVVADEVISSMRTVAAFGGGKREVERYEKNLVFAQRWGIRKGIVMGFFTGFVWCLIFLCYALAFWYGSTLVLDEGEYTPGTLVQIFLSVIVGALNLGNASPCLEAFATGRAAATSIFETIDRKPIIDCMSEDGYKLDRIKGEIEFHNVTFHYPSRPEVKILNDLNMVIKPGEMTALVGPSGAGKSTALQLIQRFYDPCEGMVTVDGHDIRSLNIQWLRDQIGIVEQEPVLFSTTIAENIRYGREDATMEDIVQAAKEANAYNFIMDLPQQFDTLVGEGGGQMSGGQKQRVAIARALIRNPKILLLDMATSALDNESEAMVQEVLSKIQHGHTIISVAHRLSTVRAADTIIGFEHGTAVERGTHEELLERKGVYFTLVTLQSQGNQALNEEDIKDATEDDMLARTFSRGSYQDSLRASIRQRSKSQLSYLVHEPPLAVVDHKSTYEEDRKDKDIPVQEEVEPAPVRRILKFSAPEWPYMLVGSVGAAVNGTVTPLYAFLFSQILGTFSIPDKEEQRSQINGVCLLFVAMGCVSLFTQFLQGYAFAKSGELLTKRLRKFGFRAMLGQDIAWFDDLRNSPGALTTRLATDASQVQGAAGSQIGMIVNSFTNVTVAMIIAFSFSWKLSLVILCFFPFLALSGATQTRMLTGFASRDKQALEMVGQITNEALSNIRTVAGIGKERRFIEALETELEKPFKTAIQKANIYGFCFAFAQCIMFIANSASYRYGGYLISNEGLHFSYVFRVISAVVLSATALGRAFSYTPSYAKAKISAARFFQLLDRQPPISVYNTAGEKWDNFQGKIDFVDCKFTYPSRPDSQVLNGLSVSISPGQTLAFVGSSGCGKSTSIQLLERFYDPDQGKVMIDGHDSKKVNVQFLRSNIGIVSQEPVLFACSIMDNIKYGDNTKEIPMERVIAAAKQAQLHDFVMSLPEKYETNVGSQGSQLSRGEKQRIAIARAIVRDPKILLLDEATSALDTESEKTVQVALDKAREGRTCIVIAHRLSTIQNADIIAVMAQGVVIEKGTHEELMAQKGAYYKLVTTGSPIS

Row | SMILES | EC50 [µM]
1 | Cc1ccc(NC(=O)c2ccc(C(F)(F)F)nc2)nc1-c1cn(C)c(=O)c2[nH]ccc12 [Compound I-5] | 2.5 to 10
2 | Cc1ccc(NC(=O)c2ccc3c(c2)OCCN3C)nc1-c1cn(C)c(=O)c2[nH]ccc12 [Compound I-15] | 2.5 to 10
3 | CCOC(=O)N1CCC(C(=O)Nc2ccc(C)c(-c3cn(C)c(=O)c4[nH]ccc34)n2)CC1 [Compound I-25] | 2.5 to 10
4 | Cc1ccc(NC(=O)c2cnn(-c3ccccc3F)c2)nc1-c1cn(C)c(=O)c2[nH]ccc12 [Compound I-3] | > 25
5 | Cc1ccc(NC(=O)c2cnn(C3CCOCC3)c2)nc1-c1cn(C)c(=O)c2[nH]ccc12 [Compound I-21] | 10 to 25
6 | Cc1ccc(NC(=O)c2ccc(-n3cccn3)cc2)nc1-c1cn(C)c(=O)c2[nH]ccc12 [Compound I-23] | > 25
7 | Cc1ccc(NC(=O)[C@@H]2CCCN2C(C)C)nc1-c1cn(C)c(=O)c2[nH]ccc12 [Compound I-2] | 2.5 to 10
8 | Cc1ccc(NC(=O)C2CCN(S(C)(=O)=O)CC2)nc1-c1cn(C)c(=O)c2[nH]ccc12 [Compound I-13] | 10 to 25
9 | Cc1ccc(NC(=O)c2cc(-c3ccccc3)no2)nc1-c1cn(C)c(=O)c2[nH]ccc12 [Compound I-19] | > 25
10 | Cc1ccc(NC(=O)c2ccncn2)nc1-c1cn(C)c(=O)c2[nH]ccc12 [Compound I-24] | 10 to 25
11 | Cc1ccc(NC(=O)c2cnn(-c3ccccc3)c2C)nc1-c1cn(C)c(=O)c2[nH]ccc12 [Compound I-9] | > 25
12 | Cc1ccc(NC(=O)C2CCN(c3ccccn3)CC2)nc1-c1cn(C)c(=O)c2[nH]ccc12 [Compound I-12] | 2.5 to 10
13 | Cc1ccc(NC(=O)c2nc(-c3ccccc3)ns2)nc1-c1cn(C)c(=O)c2[nH]ccc12 [Compound I-4] | > 25
14 | Cc1ccc(NC(=O)c2ccc3cnccc3c2)nc1-c1cn(C)c(=O)c2[nH]ccc12 [Compound I-26] | 2.5 to 10
15 | Cc1ccc(NC(=O)C2CCC(F)(F)C2)nc1-c1cn(C)c(=O)c2[nH]ccc12 (centres unmarked) [Compound I-17] | < 2.5
16 | Cc1ccc(NC(=O)c2cc3ccc(F)cc3n2C)nc1-c1cn(C)c(=O)c2[nH]ccc12 [Compound I-14] | > 25
17 | Cc1cnc2ncc(C(=O)Nc3ccc(C)c(-c4cn(C)c(=O)c5[nH]ccc45)n3)n2c1 [Compound I-10] | > 25
18 | Cc1ccc(NC(=O)C2CCc3ccccc32)nc1-c1cn(C)c(=O)c2[nH]ccc12 (centres unmarked) [Compound I-177] | 2.5 to 10
19 | Cc1ccc(NC(=O)C2CCCc3ccccc32)nc1-c1cn(C)c(=O)c2[nH]ccc12 (centres unmarked) [Compound I-176] | < 2.5
20 | Cc1ccc(NC(=O)c2cc3n(n2)CCCC3)nc1-c1cn(C)c(=O)c2[nH]ccc12 [Compound I-27] | 2.5 to 10
21 | Cc1ccc(NC(=O)C2CCN(c3ccccc3)CC2)nc1-c1cn(C)c(=O)c2[nH]ccc12 [Compound I-11] | < 2.5
22 | Cc1ccc(NC(=O)c2cnc(-c3ccccn3)nc2)nc1-c1cn(C)c(=O)c2[nH]ccc12 [Compound I-1] | 2.5 to 10
23 | Cc1ccc(NC(=O)c2cc(CC(C)C)nn2C)nc1-c1cn(C)c(=O)c2[nH]ccc12 [Compound I-8] | < 2.5
24 | Cc1ccc(NC(=O)c2ccc3c(ccn3C)c2)nc1-c1cn(C)c(=O)c2[nH]ccc12 [Compound I-20] | 2.5 to 10
25 | Cc1ccc(NC(=O)c2cnc(C(F)(F)F)s2)nc1-c1cn(C)c(=O)c2[nH]ccc12 [Compound I-7] | > 25
26 | Cc1ccc(NC(=O)c2nc3c(s2)CN(C)CC3)nc1-c1cn(C)c(=O)c2[nH]ccc12 [Compound I-16] | 10 to 25
27 | Cc1ccc(NC(=O)c2coc(N3CCOCC3)n2)nc1-c1cn(C)c(=O)c2[nH]ccc12 [Compound I-22] | 2.5 to 10
28 | Cc1ccc(NC(=O)c2ccc3c(c2)n(C)c(=O)n3C)nc1-c1cn(C)c(=O)c2[nH]ccc12 [Compound I-18] | > 25
29 | Cc1ccc(NC(=O)c2cccc3c2OC(C)(C)CC3)nc1-c1cn(C)c(=O)c2[nH]ccc12 [Compound I-6] | 2.5 to 10
